Laboratory results published in patent publication US10195196B2, “1,4-disubstituted pyridazine analogs there of and methods for treating SMN-deficiency-related conditions” (NOVARTIS AG, priority 2012, dated 2019).

Test system: SMN protein
Experiment: cellular SMN ELISA (SMN protein elevation)
Format: cell-based
Settings: ELISA condition 2: compound concentration 100 pM-10 uM, myoblast cell line from SMNdelta7 mouse model, 24 hours treatment; for SMN activity Fold: fold activation over DMSO control
How it was run: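 Readout is fold SMN elevation versus DMSO plus EC50, measured by anti-SMN capture ELISA with 450 nm absorbance. Lysates came from a myoblast line of the SMNdelta7 mouse model after 24 h compound exposure, with dose ranges of 20 nM–10 μM (condition 1) or 100 pM–10 μM (condition 2).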

Row | Structure (SMILES) | EC50 | SMN activity Fold
1 | CC1(C)CC(Nc2ccc(-c3ccc(-n4cccn4)cc3O)nn2)CC(C)(C)N1 [Example 30-1, 5-(1H-pyrazol-1-yl)-2-(6-((2,2,6,6-tetramethylpiperidin-4-yl)amino)pyridazin-3-yl)phenol] | 8 nM | 2.99 Fold
2 | CC1(C)CC(Nc2ccc(-c3ccc(C#N)cc3O)nn2)CC(C)(C)N1 [Example 30-2, 3-hydroxy-4-(6-((2,2,6,6-tetramethylpiperidin-4-yl)amino)pyridazin-3-yl)benzonitrile] | 62 nM | 2.98 Fold
3 | CC1(C)CC(Oc2ccc(-c3ccc(-n4cccn4)cc3O)nn2)CCN1 (stereo not drawn) [Example 31-1, 2-(6-((2,2-dimethylpiperidin-4-yl)oxy)pyridazin-3-yl)-5-(1H-pyrazol-1-yl)phenol] | 200 nM | 3.03 Fold
4 | CN(c1ccc(-c2cc(-c3cn[nH]c3)ccc2O)nn1)C1CC(C)(C)NC(C)(C)C1 [Example 32-1, 2-(6-(methyl(2,2,6,6-tetramethylpiperidin-4-yl)amino)pyridazin-3-yl)-4-(1H-pyrazol-4-yl)phenol] | 125 nM | 2.67 Fold
5 | CN(c1ccc(-c2cc(-c3cnn4c3CCCC4)ccc2O)nn1)C1CC(C)(C)NC(C)(C)C1 [Example 32-2, 2-(6-(methyl(2,2,6,6-tetramethylpiperidin-4-yl)amino)pyridazin-3-yl)-4-(4,5,6,7-tetrahydropyrazolo[1,5-a]pyridin-3-yl)phenol] | 396 nM | 2.49 Fold
6 | CN(c1ccc(-c2cc(-c3cnn4c3CNCC4)ccc2O)nn1)C1CC(C)(C)NC(C)(C)C1 [Example 32-3, 2-(6-(methyl(2,2,6,6-tetramethylpiperidin-4-yl)amino)pyridazin-3-yl)-4-(4,5,6,7-tetrahydropyrazolo[1,5-a]pyrazin-3-yl)phenol] | 201 nM | 2.44 Fold
7 | CN(c1ccc(-c2cc(-c3cc4ccccc4[nH]3)ccc2O)nn1)C1CC(C)(C)NC(C)(C)C1 [Example 32-4, 4-(1H-indol-2-yl)-2-(6-(methyl(2,2,6,6-tetramethylpiperidin-4-yl)amino)pyridazin-3-yl)phenol] | 168 nM | 2.09 Fold
8 | CN(c1ccc(-c2cc(C3=CCCC3)ccc2O)nn1)C1CC(C)(C)NC(C)(C)C1 [Example 32-5, 4-(cyclopent-1-en-1-yl)-2-(6-(methyl(2,2,6,6-tetramethylpiperidin-4-yl)amino)pyridazin-3-yl)phenol] | 231 nM | 2.52 Fold
9 | CN(c1ccc(-c2cc(-c3ccn[nH]3)ccc2O)nn1)C1CC(C)(C)NC(C)(C)C1 [Example 32-6, 2-(6-(methyl(2,2,6,6-tetramethylpiperidin-4-yl)amino)pyridazin-3-yl)-4-(1H-pyrazol-3-yl)phenol] | 92 nM | 2.69 Fold
10 | CN(c1ccc(-c2cc(-c3ccnc(O)c3)ccc2O)nn1)C1CC(C)(C)NC(C)(C)C1 [Example 32-7, 4-(4-hydroxy-3-(6-(methyl(2,2,6,6-tetramethylpiperidin-4-yl)amino)pyridazin-3-yl)phenyl)pyridin-2-ol] | 551 nM | 3.27 Fold
11 | Cn1ccc(-c2ccc(O)c(-c3ccc(OC4CC(C)(C)NC(C)(C)C4)nn3)c2)cc1=O [Example 32-8, 4-(4-hydroxy-3-(6-((2,2,6,6-tetramethylpiperidin-4-yl)oxy)pyridazin-3-yl)phenyl)-1-methylpyridin-2(1H)-one] | 433 nM | 2.61 Fold
12 | CC1(C)CC(Oc2ccc(-c3cc(-c4ccnc(O)c4)ccc3O)nn2)CC(C)(C)N1 [Example 32-9, 4-(4-hydroxy-3-(6-((2,2,6,6-tetramethylpiperidin-4-yl)oxy)pyridazin-3-yl)phenyl)pyridin-2-ol] | 485 nM | 2.90 Fold
13 | CN(c1ccc(-c2ccc(-c3cccc4cn[nH]c34)cc2O)nn1)C1CC(C)(C)NC(C)(C)C1 [Example 33-1, 5-(1H-indazol-7-yl)-2-(6-(methyl(2,2,6,6-tetramethylpiperidin-4-yl)amino)pyridazin-3-yl)phenol] | 349 nM | 2.29 Fold
14 | CN(c1ccc(-c2cc(Cl)c(-c3cn[nH]c3)cc2O)nn1)C1CC(C)(C)NC(C)(C)C1 [Example 34-1, 4-chloro-2-(6-(methyl(2,2,6,6-tetramethylpiperidin-4-yl)amino)pyridazin-3-yl)-5-(1H-pyrazol-4-yl)phenol] | 7 nM | 2.80 Fold
15 | CN(c1ccc(-c2cc(F)c(-c3cn[nH]c3)cc2O)nn1)C1CC(C)(C)NC(C)(C)C1 [Example 34-2, 4-fluoro-2-(6-(methyl(2,2,6,6-tetramethylpiperidin-4-yl)amino)pyridazin-3-yl)-5-(1H-pyrazol-4-yl)phenol] | 2 nM | 2.49 Fold
16 | CN(c1ccc(-c2cc(-c3c[nH]cn3)c(F)cc2O)nn1)C1CC(C)(C)NC(C)(C)C1 [Example 34-3, 5-fluoro-4-(1H-imidazol-4-yl)-2-(6-(methyl(2,2,6,6-tetramethylpiperidin-4-yl)amino)pyridazin-3-yl)phenol] | 27 nM | 2.56 Fold
17 | CN(c1ccc(-c2cc(-c3cn[nH]c3)c(F)cc2O)nn1)C1CC(C)(C)NC(C)(C)C1 [Example 34-4, 5-fluoro-2-(6-(methyl(2,2,6,6-tetramethylpiperidin-4-yl)amino)pyridazin-3-yl)-4-(1H-pyrazol-4-yl)phenol] | 37 nM | 2.34 Fold
18 | CN(c1ccc(-c2cc(-c3ccn[nH]3)c(F)cc2O)nn1)C1CC(C)(C)NC(C)(C)C1 [Example 34-5, 5-fluoro-2-(6-(methyl(2,2,6,6-tetramethylpiperidin-4-yl)amino)pyridazin-3-yl)-4-(1H-pyrazol-5-yl)phenol] | 56 nM | 2.75 Fold
19 | CN(c1ccc(-c2cc3c(cc2O)C(=O)CC3)nn1)C1CC(C)(C)NC(C)(C)C1 [Example 35-1, 6-hydroxy-5-(6-(methyl(2,2,6,6-tetramethylpiperidin-4-yl)amino)pyridazin-3-yl)-2,3-dihydro-1H-inden-1-one] | 27 nM | 2.79 Fold
20 | CN(c1ccc(-c2cc3c(cc2O)-c2[nH]ncc2C3)nn1)C1CC(C)(C)NC(C)(C)C1 [Example 35-2, 6-(6-(methyl(2,2,6,6-tetramethylpiperidin-4-yl)amino)pyridazin-3-yl)-1,4-dihydroindeno[1,2-c]pyrazol-7-ol] | 10 nM | 2.84 Fold
21 | CN(c1ccc(-c2cc3c(cc2O)/C(=N/O)CC3)nn1)C1CC(C)(C)NC(C)(C)C1 [Example 35-3, 6-hydroxy-5-(6-(methyl(2,2,6,6-tetramethylpiperidin-4-yl)amino)pyridazin-3-yl)-2,3-dihydro-1H-inden-1-one oxime] | 11 nM | 2.62 Fold
22 | CN(c1ccc(-c2cc3c(cc2O)C(O)CC3)nn1)C1CC(C)(C)NC(C)(C)C1 (stereo not drawn) [Example 35-4, 5-(6-(methyl(2,2,6,6-tetramethylpiperidin-4-yl)amino)pyridazin-3-yl)-2,3-dihydro-1H-indene-1,6-diol] | 131 nM | 2.11 Fold
23 | CN(c1ccc(-c2cc3c(cc2O)-c2nc(N)sc2C3)nn1)C1CC(C)(C)NC(C)(C)C1 [Example 35-5, 2-amino-6-(6-(methyl(2,2,6,6-tetramethylpiperidin-4-yl)amino)pyridazin-3-yl)-8H-indeno[1,2-d]thiazol-5-ol] | 6 nM | 2.44 Fold
24 | CN(c1ccc(-c2cc3c(cc2O)CCn2cncc2-3)nn1)C1CC(C)(C)NC(C)(C)C1 [Example 35-6, 9-(6-(methyl(2,2,6,6-tetramethylpiperidin-4-yl)amino)pyridazin-3-yl)-5,6-dihydroimidazo[5,1-a]isoquinolin-8-ol] | 51 nM | 2.21 Fold
25 | CN(c1ccc(-c2cc(C(=O)NCc3cnn(C)c3)ccc2O)nn1)C1CC(C)(C)NC(C)(C)C1 [Example 36-1, 4-hydroxy-3-(6-(methyl(2,2,6,6-tetramethylpiperidin-4-yl)amino)pyridazin-3-yl)-N-((1-methyl-1H-pyrazol-4-yl)methyl)benzamide] | 652 nM | 2.04 Fold
26 | CN(c1ccc(-c2cc(-n3cc(CO)cn3)ccc2O)nn1)C1CC(C)(C)NC(C)(C)C1 [Example 37-1, 4-(4-(hydroxymethyl)-1H-pyrazol-1-yl)-2-(6-(methyl(2,2,6,6-tetramethylpiperidin-4-yl)amino)pyridazin-3-yl)phenol] | 118 nM | 2.59 Fold
27 | CN(c1ccc(-c2ccc3cnc(OCc4ccccc4)cc3c2)nn1)C1CC(C)(C)NC(C)(C)C1 [Example 39-1, 6-(3-(benzyloxy)isoquinolin-6-yl)-N-methyl-N-(2,2,6,6-tetramethylpiperidin-4-yl)pyridazin-3-amine] | 1030 nM | 2.65 Fold
28 | CN(c1ccc(-c2ccc3ccnc(OCc4ccccc4)c3c2)nn1)C1CC(C)(C)NC(C)(C)C1 [Example 39-2, 6-(1-(benzyloxy)isoquinolin-7-yl)-N-methyl-N-(2,2,6,6-tetramethylpiperidin-4-yl)pyridazin-3-amine] | 408 nM | 3.04 Fold
29 | COc1cc(-c2cc(O)c(-c3ccc(N(C)C4CC(C)(C)NC(C)(C)C4)nn3)c(F)c2)ccn1 [Example 40-1, 3-fluoro-5-(2-methoxypyridin-4-yl)-2-(6-(methyl(2,2,6,6-tetramethylpiperidin-4-yl)amino)pyridazin-3-yl)phenol] | 79 nM | 2.58 Fold
30 | CN(c1ccc(-c2c(O)cc(-c3cc[nH]c(=O)c3)cc2F)nn1)C1CC(C)(C)NC(C)(C)C1 [Example 40-2, 4-(3-fluoro-5-hydroxy-4-(6-(methyl(2,2,6,6-tetramethylpiperidin-4-yl)amino)pyridazin-3-yl)phenyl)pyridin-2(1H)-one] | 25 nM | 2.78 Fold
